Measurements from PMC11200585, “Prospects for Prostate Cancer Chemotherapy: Cytotoxic Evaluation and Mechanistic Insights of Quinolinequinones with ADME/PK Profile” (Biomedicines, 2024).

Key:
Format in all cases: cell-based, human
[1] = test system: CCRF-CEM; test: NCI-60 one-dose screen (leukemia); settings: 10 µM single dose
[2] = test system: HL-60(TB); test: NCI-60 one-dose screen (leukemia); settings: 10 µM single dose, 48 h
[3] = test system: K-562; test: NCI-60 one-dose screen (leukemia); settings: 10 µM single dose, 48 h
[4] = test system: MOLT-4; test: NCI-60 one-dose screen (leukemia); settings: 10 µM single dose, 48 h
[5] = test system: RPMI-8226; test: NCI-60 one-dose screen (leukemia); settings: 10 µM single dose, 48 h
[6] = test system: SR; test: NCI-60 one-dose screen (leukemia); settings: 10 µM single dose, 48 h
[7] = test system: A549/ATCC; test: NCI-60 one-dose screen (non-small cell lung cancer); settings: 10 µM single dose, 48 h
[8] = test system: EKVX; test: as above; settings: 10 µM single dose, 48 h
[9] = test system: HOP-62; test: as above; settings: 10 µM single dose, 48 h
[10] = test system: HOP-92; test: as above; settings: 10 µM single dose, 48 h
[11] = test system: NCI-H226; test: as above; settings: 10 µM single dose, 48 h
[12] = test system: NCI-H23; test: as above; settings: 10 µM single dose, 48 h
[13] = test system: NCI-H322M; test: as above; settings: 10 µM single dose, 48 h
[14] = test system: NCI-H460; test: as above; settings: 10 µM single dose
[15] = test system: NCI-H522; test: as above; settings: 10 µM single dose, 48 h
[16] = test system: HCT-116; test: NCI-60 one-dose screen (colon cancer); settings: 10 µM single dose, 48 h
[17] = test system: SF-268; test: NCI-60 one-dose screen (CNS cancer); settings: 10 µM single dose, 48 h
[18] = test system: SF-295; test: NCI-60 one-dose screen (CNS cancer); settings: 10 µM single dose, 48 h
[19] = test system: SF-539; test: NCI-60 one-dose screen (CNS cancer); settings: 10 µM single dose, 48 h
[20] = test system: SNB-19; test: NCI-60 one-dose screen (CNS cancer); settings: 10 µM single dose, 48 h
[21] = test system: SNB-75; test: NCI-60 one-dose screen (CNS cancer); settings: 10 µM single dose, 48 h
[22] = test system: U251; test: NCI-60 one-dose screen (CNS cancer)
[23] = test system: CCRF-CEM; test: NCI-60 five-dose assay (leukemia); settings: 48 h, SRB
[24] = test system: HL-60(TB); test: NCI-60 five-dose assay (leukemia); settings: 48 h, SRB
[25] = test system: K-562; test: NCI-60 five-dose assay (leukemia); settings: SRB
[26] = test system: A549/ATCC; test: NCI-60 five-dose assay (non-small cell lung cancer); settings: 48 h, SRB
[27] = test system: EKVX; test: as above; settings: 48 h, SRB
[28] = test system: NCI-H226; test: as above; settings: 48 h, SRB
[29] = test system: NCI-H23; test: as above; settings: 48 h, SRB
[30] = test system: NCI-H322M; test: as above; settings: 48 h, SRB
[31] = test system: COLO 205; test: NCI-60 five-dose assay (colon cancer); settings: 48 h, SRB
[32] = test system: M14; test: NCI-60 five-dose assay (melanoma); settings: 48 h, SRB
[33] = test system: MDA-MB-435; test: NCI-60 five-dose assay (melanoma); settings: 48 h, SRB
[34] = test system: SK-MEL-28; test: NCI-60 five-dose assay (melanoma); settings: 48 h, SRB
[35] = test system: UACC-62; test: NCI-60 five-dose assay (melanoma); settings: 48 h, SRB
[36] = test system: SN12C; test: NCI-60 five-dose assay (renal cancer); settings: 48 h, SRB
[37] = test system: DU-145; test: NCI-60 five-dose assay (prostate cancer); settings: 48 h, SRB
[38] = test system: MCF7; test: NCI-60 five-dose assay (breast cancer); settings: 48 h, SRB
[39] = test system: T-47D; test: NCI-60 five-dose assay (breast cancer); settings: 48 h, SRB
[40] = Homo sapiens, read-out: LC50 (the source's name)

## CCOc1ccc(NC2=C(Cl)C(=O)c3nc(C)ccc3C2=O)cc1 [AQQ3]
[1]; 48 h
  GP (growth percentage): 0.63%
[1]; Homo sapiens
  inhibition at 10 µM: 99.4%
[2]
  GP (growth percentage): −46.39%
[3]
  GP (growth percentage): −4.17%
[4]
  GP (growth percentage): −46.73%
[5]
  GP (growth percentage): −19.35%
[6]
  GP (growth percentage): −27.42%
[7]
  GP (growth percentage): 46.18%
[8]
  GP (growth percentage): −97.48%
[9]
  GP (growth percentage): 72.15%
[10]
  GP (growth percentage): −86.99%
[11]
  GP (growth percentage): −52.55%
[12]
  GP (growth percentage): −61.00%
[13]
  GP (growth percentage): 32.37%
[14]; 48 h
  GP (growth percentage): 13.41%
[14]; Homo sapiens
  inhibition at 10 µM: 86.6%
[15]
  GP (growth percentage): −61.57%
[16]
  GP (growth percentage): −83.64%
[17]
  GP (growth percentage): 32.33%
[18]
  GP (growth percentage): 51.05%
[19]
  GP (growth percentage): −58.82%
[20]
  GP (growth percentage): 44.68%
[21]
  GP (growth percentage): 96.54%
[22]; 10 µM single dose, 48 h
  GP (growth percentage): 15.60%
[22]; Homo sapiens, U-251, 10 µM single dose
  inhibition at 10 µM: 84.4%
[23]
  TGI: >100 µM
[23]; Homo sapiens
  GI50: 2.11 µM
  LC50 (concentration killing 50% of cells): > 100 µM
[24]
  TGI: 4.18 µM
[24]; Homo sapiens
  GI50: 1.47 µM
[24]; [40]
  CC50: > 100 µM
[25]; 48 h
  TGI: >100 µM
[25]; Homo sapiens, K562, 48 h
  GI50: 1.17 µM
  LC50: > 100 µM
[26]
  TGI: 4.64 µM
[26]; Homo sapiens
  GI50: 2.09 µM
[26]; [40]
  CC50: 17.5 µM
[27]
  TGI: 3.12 µM
[27]; Homo sapiens
  GI50: 1.61 µM
[27]; [40]
  CC50: 6.05 µM
[28]
  TGI: 4.52 µM
[28]; Homo sapiens
  GI50: 1.84 µM
  LC50: > 100 µM
[29]
  TGI: 2.85 µM
[29]; Homo sapiens
  GI50: 1.35 µM
[29]; [40]
  CC50: 6.03 µM
[30]
  TGI: 3.74 µM
[30]; Homo sapiens
  GI50: 1.68 µM
[30]; [40]
  CC50: 8.29 µM
[31]
  TGI: 3.64 µM
[31]; Homo sapiens
  GI50: 1.86 µM
[31]; [40]
  CC50: 7.12 µM
[32]
  TGI: 3.23 µM
[32]; Homo sapiens
  GI50: 1.68 µM
  LC50: 6.21 µM
[33]
  TGI: 1.53 µM
[33]; Homo sapiens
  GI50: 0.442 µM
[33]; [40]
  CC50: 3.99 µM
[34]
  TGI: 3.14 µM
[34]; Homo sapiens
  GI50: 1.73 µM
  LC50: 5.7 µM
[35]
  TGI: 3.29 µM
[35]; Homo sapiens
  GI50: 1.81 µM
  LC50 (concentration killing 50% of cells): 5.97 µM
[36]
  TGI: 2.99 µM
[36]; Homo sapiens
  GI50: 1.58 µM
  LC50 (concentration killing 50% of starting cells): 5.66 µM
[37]
  TGI: 3.13 µM
[37]; Homo sapiens
  GI50: 1.72 µM
[37]; [40]
  CC50: 5.68 µM
[38]
  TGI: 3.82 µM
[38]; Homo sapiens
  GI50: 1.54 µM
  LC50: 9.44 µM
[39]
  TGI: 3.91 µM
[39]; Homo sapiens, T47D
  GI50: 1.01 µM
[39]; Homo sapiens, T47D, read-out: LC50 (the source's name)
  CC50: > 100 µM
